{"source": "patent US4317914A", "about": "“Oxazolines” (Hoffmann-La Roche Inc., priority 1979, dated 1982)", "key": {"[1]": {"test_system": "plasma glucose", "assay": "Activity on plasma glucose after repeated oral administration, fasted rat (1)", "type": "in vivo", "conditions": "for Plasma glucose 3 hours after the last of 5 oral medications: 5 × p.o., *p < 0.05, ***p < 0.001; for Plasma glucose 3 hours after the last medication: ***p < 0.001", "protocol": "(§1) The preparations containing the test compound were administered to rats and mice as a suspension in 5% gun arabic (10 ml/kg) through a stomach probe. Dogs received the preparations orally in gelatin capsules. The blank values were ascertained from animals which received only the vehicle or a blank capsule. The medication was administered daily at 9:00 a.m. and 3:00 p.m.\n(§2) The plasma glucose (Tables 1 and 3) was determined according to the hexokinase method. The plasma was obtained from heparinized blood after decapitating the rats (1) or by puncturing the vena saphena (2), or there was used a filtrate, made protein-free with perchloric acid, of blood removed from the tip of the tail (3), (4), (5). The glucose in the urine was determined directly. In the case of (1), (2) and (4), the feed was withdrawn with the first of five medications."}, "[2]": {"assay": "Toxicity, 10 day test in rats", "conditions": "rat, in vivo"}, "[3]": {"assay": "Toxicity, 10 day test in mice", "conditions": "mouse, in vivo"}, "[4]": {"test_system": "plasma glucose", "assay": "Activity on plasma glucose after repeated oral administration, fasted dog (2)", "type": "in vivo", "conditions": "5 administrations", "protocol": "as §1, §2"}, "[5]": {"test_system": "blood glucose", "assay": "Activity on blood glucose after repeated oral administration, obese-hyperglycemic mouse (4), feed withdrawn", "type": "in vivo", "conditions": "294 mg/kg p.o., 5 administrations", "protocol": "as §1, §2"}, "[6]": {"test_system": "blood glucose", "assay": "Activity on blood glucose after repeated oral administration, diabetic rat (3), streptozotocin", "type": "in vivo", "conditions": "132 mg/kg p.o., 7 administrations", "protocol": "as §1, §2\n(§3) In the case of (3), female rats received 70 mg/kg of streptozotocin subcutaneously 2 weeks before the test. In the case of (3) and (5), quantitatively controlled feed supply existed."}, "[7]": {"test_system": "blood glucose", "assay": "Activity on blood glucose after repeated oral administration, obese-hyperglycemic mouse (5), quantitatively controlled feed supply", "type": "in vivo", "conditions": "11 administrations", "protocol": "as §1, §2, §3"}, "[8]": {"conditions": "88 mg/kg p.o., 5 administrations"}}}
{"smiles": "CCN(CC)c1ccc(C2OC(C)(C)N=C2c2ccccc2)cc1", "note": "(centres unmarked) [B, 5-[p-(diethylamino)-phenyl]-2,2-dimethyl-4-phenyl-3-oxazoline]", "values": [{"measurement": "Plasma glucose 3 hours after the last of 5 oral medications", "setting": "[1]; 300 μmol/kg", "value": "91 % of the blank values"}, {"measurement": "Plasma glucose 3 hours after the last of 5 oral medications", "setting": "[1]; 1000 μmol/kg", "value": "77 % of the blank values"}]}
{"smiles": "CN(C=O)c1ccc(C2OC(C)(C)N=C2c2ccccc2)cc1", "note": "(centres unmarked) [C, 4'-(2,2-dimethyl-4-phenyl-3-oxazolin-5-yl)-N-methylformanilide]", "values": [{"measurement": "Plasma glucose 3 hours after the last of 5 oral medications", "setting": "[1]; 300 μmol/kg", "value": "87 % of the blank values"}]}
{"smiles": "CNc1ccc(C2OC(C)(C)N=C2c2ccccc2)cc1", "note": "(centres unmarked) [D, 5-[p-(methylamino)phenyl]-2,2-dimethyl-4-phenyl-3-oxazoline]", "values": [{"measurement": "Plasma glucose 3 hours after the last of 5 oral medications", "setting": "[1]; 300 μmol/kg", "value": "86 % of the blank values"}, {"measurement": "Plasma glucose 3 hours after the last of 5 oral medications", "setting": "[1]; 1000 μmol/kg", "value": "81 % of the blank values"}]}
{"smiles": "CN(C)c1ccc(C2OC(C)(C)N=C2c2ccccc2)cc1", "note": "(centres unmarked) [A, 5-[p-(dimethylamino)phenyl]-2,2-dimethyl-4-phenyl-3-oxazoline]", "values": [{"measurement": "LD50 at 240 h", "setting": "[2]", "value": 970, "unit": "mg/kg"}, {"measurement": "LD50 at 240 h", "setting": "[3]", "value": 220, "unit": "mg/kg"}, {"measurement": "Plasma glucose 0 hours after the last medication", "setting": "[4]; 29 mg/kg p.o., **p < 0.01", "value": "82 % of blank values"}, {"measurement": "Plasma glucose 1 hour after the last medication", "setting": "[4]; 29 mg/kg p.o., *p < 0.05", "value": "75 % of blank values"}, {"measurement": "Plasma glucose 3 hours after the last medication", "setting": "[4]; 29 mg/kg p.o., ***p < 0.001", "value": "77 % of blank values"}, {"measurement": "Plasma glucose 6 hours after the last medication", "setting": "[4]; 29 mg/kg p.o., **p < 0.01", "value": "74 % of blank values"}, {"measurement": "Plasma glucose 24 hours after the last medication", "setting": "[4]; 29 mg/kg p.o.", "value": "84 % of blank values"}, {"measurement": "Plasma glucose 0 hours after the last medication", "setting": "[4]; 88 mg/kg p.o., **p < 0.01", "value": "77 % of blank values"}, {"measurement": "Plasma glucose 1 hour after the last medication", "setting": "[4]; 88 mg/kg p.o.", "value": "75 % of blank values"}, {"measurement": "Plasma glucose 3 hours after the last medication", "setting": "[4]; 88 mg/kg p.o., *p < 0.05", "value": "78 % of blank values"}, {"measurement": "Plasma glucose 6 hours after the last medication", "setting": "[4]; 88 mg/kg p.o., *p < 0.05", "value": "76 % of blank values"}, {"measurement": "Plasma glucose 24 hours after the last medication", "setting": "[4]; 88 mg/kg p.o., *p < 0.05", "value": "74 % of blank values"}, {"measurement": "Blood glucose 0 hours after the last medication", "setting": "[5]; 0 h, *p < 0.05", "value": "63 % of blank values"}, {"measurement": "Blood glucose 1 hour after the last medication", "setting": "[5]; 1 h", "value": "74 % of blank values"}, {"measurement": "Blood glucose 3 hours after the last medication", "setting": "[5]; 3 h", "value": "71 % of blank values"}, {"measurement": "Blood glucose 6 hours after the last medication", "setting": "[5]; 6 h, ***p < 0.001", "value": "45 % of blank values"}, {"measurement": "Plasma glucose 3 hours after the last of 5 oral medications", "setting": "[1]; 300 μmol/kg", "value": "78 % of the blank values"}, {"measurement": "Plasma glucose 3 hours after the last of 5 oral medications", "setting": "[1]; 1000 μmol/kg", "value": "58 % of the blank values"}, {"measurement": "Plasma glucose 0 hours after the last medication", "setting": "[1]; 88 mg/kg p.o., 5 administrations, 0 h", "value": "76 % of blank values"}, {"measurement": "Plasma glucose 1 hour after the last medication", "setting": "[1]; [8]", "value": "76 % of blank values"}, {"measurement": "Plasma glucose 3 hours after the last medication", "setting": "[1]; [8]", "value": "78 % of blank values"}, {"measurement": "Plasma glucose 1 hour after the last medication", "setting": "[1]; 294 mg/kg p.o., 5 administrations, **p < 0.01", "value": "57 % of blank values"}, {"measurement": "Plasma glucose 3 hours after the last medication", "setting": "[1]; 294 mg/kg p.o., 5 administrations", "value": "58 % of blank values"}, {"measurement": "Blood glucose 0 hours after the last medication", "setting": "[6]; 0 h", "value": "101 % of blank values"}, {"measurement": "Blood glucose 1 hour after the last medication", "setting": "[6]; 1 h", "value": "101 % of blank values"}, {"measurement": "Blood glucose 3 hours after the last medication", "setting": "[6]; 3 h", "value": "90 % of blank values"}, {"measurement": "Blood glucose 6 hours after the last medication", "setting": "[6]; 6 h, *p < 0.05", "value": "86 % of blank values"}, {"measurement": "Blood glucose 0 hours after the last medication", "setting": "[7]; 44 mg/kg p.o.", "value": "83 % of blank values"}, {"measurement": "Blood glucose 1 hour after the last medication", "setting": "[7]; 44 mg/kg p.o.", "value": "77 % of blank values"}, {"measurement": "Blood glucose 3 hours after the last medication", "setting": "[7]; 44 mg/kg p.o.", "value": "84 % of blank values"}, {"measurement": "Blood glucose 0 hours after the last medication", "setting": "[7]; 132 mg/kg p.o., **p < 0.01", "value": "66 % of blank values"}, {"measurement": "Blood glucose 1 hour after the last medication", "setting": "[7]; 132 mg/kg p.o., *p < 0.05", "value": "61 % of blank values"}, {"measurement": "Blood glucose 3 hours after the last medication", "setting": "[7]; 132 mg/kg p.o., ***p < 0.001", "value": "55 % of blank values"}]}
